Data on 14 molecules can be found in patent US10844023B2 (Washington University, priority 2017, dated 2020).

The assay has as its system Mfn2 null MEFs. In words: Mitochondrial elongation (aspect ratio) fusogenicity assay. It is filed as cell-based, mouse. Also on record: % long compare to B: dose or concentration left out as unconfirmed. To be noted: for % long compare to B: mitochondrial elongation relative to Cpd B (B01 = 100), Mfn2 null MEFs, compound overnight as printed (FIG. 48).

“Also recorded” adds a separate entry of the source.

As for `O=C(NCCSCc1cccc(Cl)c1)C1CCCCn2nnnc21` (centres unmarked) [D07, N-(2-{[(3-chlorophenyl)methyl]-sulfanyl}ethyl)-5H,6H,7H,8H,9H-[1,2,3,4]tetrazolo[1,5-a]azepine-9-carboxamide], the “% long compare to B” value was −6%.
Same read-out and setting: next, `COc1ccc(OCc2nnc(SC(C)C(=O)Nc3sc4c(c3C(N)=O)CCC4)n2C)cc1` (centres unmarked) [D8, 2-[2-({5-[(4-methoxyphenoxy)-methyl]-4-methyl-4H-1,2,4-triazol-3-yl}sulfanyl)propana-mido]-4H,5H,6H-cyclopenta[b)thiophene-3-carboxamide]: −1%.
The same measure, in the same setting: next, `Cc1cc(C)n2nc(C(=O)N3C[C@@H]4CCN(Cc5nccn5C)[C@@H]4C3)cc2n1` [D08, 2-{[(3aS,6aS)-5-{5,7-dimethylpyrazolo[1,5-a]pyrimidine-2-carbonyl}-octahydropyrrolo[3,4-b]pyrrol-1-yl]methyl}-1-methyl-1H-imidazole]: 114%; `O=C1CC(SCCc2nc3ccccc3[nH]2)C(=O)N1c1cccc(F)c1` (centres unmarked) [D09, 3-{[2-(1H-1,3-benzodiazol-2-yl)ethyl]sulfanyl}-1-(3-fluorophenyl)pyrro-lidine-2,5-dione]: 73%.
`O=C1CC(SCCc2nc3ccccc3[nH]2)C(=O)N1c1cccc(F)c1` (centres unmarked) [D9, 3-{[2-(1H-1,3-benzodiazol-2-yl)ethyl]sulfanyl}-1-(3-fluorophenyl)pyrro-lidine-2,5-dione]: the “Fusogenic activity” value (mitochondrial elongation / fusion) is reported as “failed validation in the secondary screen; also recorded: showed no true fusogenic activity”.
On to `Cc1ccc(SC2CCN(Cc3cc4n(n3)CCNC4)CC2)cc1` [D10, 4-[(4-methylphenyl)sulfanyl]-1-({4H,5H,6H,7H-pyrazolo[1,5-a]pyrazin-2-yl}methyl)piperidine], for which the “% long compare to B” value was −7%.
The same measure, in the same setting: next, `Cc1nc[nH]c1CSCCNC(=O)C1CCN(C(=O)C2CCC2)CC1` [D11, 1-cyclobutanecarbonyl-N-(2-{[(4-methyl-1H-imidazol-5-yl)methyl]sulfanyl}-ethyl)piperidine-4-carboxamide]: −8%; `Cc1ccc(N2C[C@@H]3CC[C@H](C2)N(Cc2ccccn2)C3=O)nn1` [D12, (1S,5R)-3-(6-methylpyridazin-3-yl)-6-[(pyridin-2-yl)methyl)-3,6-diazabicyclo[3.2.2] nonan-7-one]: −4%.
Still for that read-out and setting: next, `CC(C)C1=CC2C(=O)NC(CSCC(=O)NCc3ccccn3)=NC2S1` (centres unmarked) [E02, 2-({[4-oxo-6-(propan-2-yl)-3H,4H,4aH,7aH-thieno[2,3-d]pyrimidin-2-yl]methyl}sulfanyl)-N-[(pyridin-2-yl)methyl]acetamide]: 11%; `Cc1nc[nH]c1CSCCn1cnc2cn(C)nc2c1=O` [E03, 2-methyl-6-(2-{[(4-methyl-1H-imidazol-5-yl)methyl]sulfanyl}-ethyl)-2H,6H,7H-pyrazolo[4,3-d]pyrimidin-7-one]: −10%.
The same measure, in the same setting: next, `CCC(C)NC(=O)c1ccccc1NC(=O)C(C)Sc1ccc(C)cc1` (centres unmarked) [E04, N-(butan-2-yl)-2-{2-[(4-methyl-phenyl)sulfanyl]pro-panamido}benzamide]: 1%; `O=C(NCCSCc1ccccc1)C1CCCCO1` (centres unmarked) [E05, N-[2-(benzyl-sulfanyl)ethyl]oxane-2-carboxamide]: 1%.
On to `Cc1nnc(SCCCNC(=O)c2n[nH]c3c2CN(C)CC3)s1` [E06, 5-methyl-N-{3-[(5-methyl-1,3,4-thiadiazol-2-yl)sulfanyl]propyl}-1H,4H,5H,6H,7H-pyrazolo[4,3-c]pyridine-3-carboxamide], for which the “% long compare to B” value is on record as −3%.
The same measure, in the same setting: next, `c1ccc(CSCCc2nc(C3CCOC3)no2)cc1` (centres unmarked) [E07, 5-[2-(benzylsulfanyl)ethyl]-3-(oxolan-3-yl)-1,2,4-oxadiazole]: 4%.
